From ChEMBL document CHEMBL3045921, “Synthesis and Acaricidal Activity of Pyrazole-5-carboxamide Derivatives” (1991)

Assays:
Format in all cases: functional
Settings in all cases: 120 h
Tetranychus urticae [1] = experiment: Acaricidal activity against Tetranychus urticae (two-spotted spider mite) in kidney bean leaf assessed as mortality at 50 ppm at 25 degC measured after 5 days
Tetranychus urticae [2] = experiment: Acaricidal activity against Tetranychus urticae (two-spotted spider mite) in kidney bean leaf assessed as mortality at 200 ppm at 25 degC measured after 5 days
Tetranychus urticae [3] = experiment: Acaricidal activity against Tetranychus urticae (two-spotted spider mite) in kidney bean leaf assessed as mortality at 500 ppm at 25 degC measured after 5 days
Tetranychus urticae [4] = experiment: Acaricidal activity against Tetranychus urticae (two-spotted spider mite) in kidney bean leaf assessed as mortality at 3.1 ppm at 25 degC measured after 5 days
Tetranychus urticae [5] = experiment: Acaricidal activity against Tetranychus urticae (two-spotted spider mite) in kidney bean leaf assessed as mortality at 12.5 ppm at 25 degC measured after 5 days

| Compound | mortality at 50 ppm (Tetranychus urticae [1]) [%] | mortality at 200 ppm (Tetranychus urticae [2]) [%] | mortality at 500 ppm (Tetranychus urticae [3]) [%] | mortality at 3.1 ppm (Tetranychus urticae [4]) [%] | mortality at 12.5 ppm (Tetranychus urticae [5]) [%] |
| --- | --- | --- | --- | --- | --- |
| CCc1nn(C)c(C(=O)NCc2ccc(C(C)C)cc2)c1Cl | 100 | 100 | 100 | 0 | 30 |
| CCCCCCCCc1ccc(CNC(=O)c2c(Cl)c(CC)nn2C)cc1 | 30 | 80 | 100 | 0 | 0 |
| CCc1nn(C)c(C(=O)NCc2ccc([N+](=O)[O-])cc2)c1Cl | 0 | 0 | 0 | – | – |
| CCCCc1ccc(CNC(=O)c2c(Cl)c(CC)nn2C)cc1 | 100 | 100 | 100 | 0 | 80 |
| CCc1nn(C)c(C(=O)NCc2ccc(CC(C)C)cc2)c1Cl | 80 | 100 | 100 | 0 | 30 |
| CCc1nn(C)c(C(=O)NCc2ccc(C(C)CC)cc2)c1Cl (stereo not given) | 100 | 100 | 100 | 0 | 0 |
| CCCCCc1ccc(CNC(=O)c2c(Cl)c(CC)nn2C)cc1 | 100 | 100 | 100 | 30 | 80 |
| CCc1nn(C)c(C(=O)NCc2ccc(CC(C)(C)C)cc2)c1Cl | 100 | 100 | 100 | 0 | 80 |
| CCCCCCc1ccc(CNC(=O)c2c(Cl)c(CC)nn2C)cc1 | 30 | 80 | 100 | 0 | 0 |
| CCc1nn(C)c(C(=O)NCc2ccc([Si](C)(C)C)cc2)c1Cl | 100 | 100 | 100 | 0 | 80 |
| CCc1nn(C)c(C(=O)NCc2ccc(OC)cc2)c1Cl | 0 | 0 | 0 | – | – |
| CCOc1ccc(CNC(=O)c2c(Cl)c(CC)nn2C)cc1 | 0 | 0 | 0 | – | – |
| CCCOc1ccc(CNC(=O)c2c(Cl)c(CC)nn2C)cc1 | 0 | 80 | 100 | – | – |
| CCc1nn(C)c(C(=O)NCc2ccc(OC(C)C)cc2)c1Cl | 0 | 30 | 80 | – | – |
| CCCCOc1ccc(CNC(=O)c2c(Cl)c(CC)nn2C)cc1 | 30 | 80 | 100 | – | – |
| CCc1nn(C)c(C(=O)NCc2ccc(OC(F)F)cc2)c1Cl | 0 | 30 | 80 | – | – |
| CCc1nn(C)c(C(=O)NCc2ccc(OCC(F)(F)F)cc2)c1Cl | 0 | 30 | 80 | – | – |
| CCOCCOc1ccc(CNC(=O)c2c(Cl)c(CC)nn2C)cc1 | 0 | 30 | 80 | – | – |
| CCOCc1ccc(CNC(=O)c2c(Cl)c(CC)nn2C)cc1 | 0 | 80 | 100 | – | – |

| Compound | mortality at 50 ppm (Tetranychus urticae [1]) [%] | mortality at 200 ppm (Tetranychus urticae [2]) [%] | mortality at 500 ppm (Tetranychus urticae [3]) [%] | mortality at 3.1 ppm (Tetranychus urticae [4]) [%] | mortality at 12.5 ppm (Tetranychus urticae [5]) [%] |
| --- | --- | --- | --- | --- | --- |
| CCc1nn(C)c(C(=O)NCc2ccc(N)cc2)c1Cl | 0 | 0 | 0 | – | – |
| CCCNc1ccc(CNC(=O)c2c(Cl)c(CC)nn2C)cc1 | 0 | 0 | 80 | – | – |
| CCc1nn(C)c(C(=O)NCc2ccc(SC)cc2)c1Cl | 0 | 80 | 100 | – | – |
| CCc1nn(C)c(C(=O)NCc2ccc([S+](C)[O-])cc2)c1Cl (stereo not given) | 0 | 0 | 0 | – | – |
| CCc1nn(C)c(C(=O)NCc2ccc(S(C)(=O)=O)cc2)c1Cl | 0 | 0 | 0 | – | – |
| CCc1nn(C)c(C(=O)NCc2ccc(C#N)cc2)c1Cl | 0 | 0 | 0 | – | – |
| CCc1nn(C)c(C(=O)NCc2ccc(C(F)(F)F)cc2)c1Cl | 30 | 80 | 100 | – | – |
| CCc1nn(C)c(C(=O)NCc2ccc(Br)cc2)c1Cl | 0 | 0 | 0 | – | – |
| Cc1nn(C)c(C(=S)NCc2ccc(C(C)(C)C)cc2)c1Cl | 0 | 30 | 80 | – | – |
| Cc1n[nH]c(C(=O)NCc2ccc(C(C)(C)C)cc2)c1Cl | 0 | 0 | 0 | – | – |
| CCn1nc(C)c(Cl)c1C(=O)NCc1ccc(C(C)(C)C)cc1 | 0 | 0 | 0 | – | – |
| Cc1nn(C(C)C)c(C(=O)NCc2ccc(C(C)(C)C)cc2)c1Cl | 0 | 0 | 0 | – | – |
| CCCCn1nc(C)c(Cl)c1C(=O)NCc1ccc(C(C)(C)C)cc1 | 0 | 0 | 0 | – | – |
| Cc1nn(-c2ccccc2)c(C(=O)NCc2ccc(C(C)(C)C)cc2)c1Cl | 0 | 0 | 0 | – | – |
| Cc1nn(Cc2ccccc2)c(C(=O)NCc2ccc(C(C)(C)C)cc2)c1Cl | 0 | 0 | 0 | – | – |
| Cc1nn(C(F)F)c(C(=O)NCc2ccc(C(C)(C)C)cc2)c1Cl | 0 | 0 | 0 | – | – |
| Cc1cc(C(=O)NCc2ccc(C(C)(C)C)cc2)n(C)n1 | 100 | 100 | 100 | 0 | 30 |
| COc1c(C)nn(C)c1C(=O)NCc1ccc(C(C)(C)C)cc1 | 100 | 100 | 100 | 0 | 100 |
| CCOc1c(C)nn(C)c1C(=O)NCc1ccc(C(C)(C)C)cc1 | 0 | 100 | 100 | 0 | 0 |

| Compound | mortality at 50 ppm (Tetranychus urticae [1]) [%] | mortality at 200 ppm (Tetranychus urticae [2]) [%] | mortality at 500 ppm (Tetranychus urticae [3]) [%] | mortality at 3.1 ppm (Tetranychus urticae [4]) [%] | mortality at 12.5 ppm (Tetranychus urticae [5]) [%] |
| --- | --- | --- | --- | --- | --- |
| Cc1nn(C)c(C(=O)NCc2ccc(C(C)(C)C)cc2)c1OC(F)F | 0 | 0 | 100 | 0 | 0 |
| Cn1ncc(Cl)c1C(=O)NCc1ccc(C(C)(C)C)cc1 | 30 | 100 | 100 | 0 | 0 |
| CC(C)c1nn(C)c(C(=O)NCc2ccc(C(C)(C)C)cc2)c1Cl | 100 | 100 | 100 | 0 | 30 |
| CCCc1nn(C)c(C(=O)NCc2ccc(C(C)(C)C)cc2)c1Cl | 30 | 80 | 100 | 0 | 0 |
| CCCc1ccc(CNC(=O)c2c(Cl)c(CC)nn2C)cc1 | 0 | 30 | 100 | 0 | 0 |
| Cc1nn(C)c(C(=O)NC(C)(C)C)c1Br | 0 | 0 | 0 | – | – |
| Cc1nn(C)c(C(=O)Nc2ccc(C(C)(C)C)cc2)c1Br | 0 | 0 | 0 | – | – |
| Cc1nn(C)c(C(=O)NCc2ccccc2)c1Br | 0 | 0 | 0 | – | – |
| Cc1nn(C)c(C(=O)NC(C)c2ccccc2)c1Br (stereo not given) | 0 | 0 | 0 | – | – |
| Cc1nn(C)c(C(=O)NC(C)(C)c2ccccc2)c1Br | 0 | 0 | 0 | – | – |
| Cc1nn(C)c(C(=O)NC(c2ccccc2)C(C)C)c1Cl (stereo not given) | 0 | 0 | 0 | – | – |
| Cc1nn(C)c(C(=O)NC(c2ccccc2)c2ccccc2)c1Br | 0 | 0 | 0 | – | – |
| Cc1nn(C)c(C(=O)NC(C)c2ccc(C(C)(C)C)cc2)c1Br (stereo not given) | 80 | 100 | 100 | – | – |
| Cc1nn(C)c(C(=O)NCc2ccccc2C(F)(F)F)c1Cl | 0 | 0 | 0 | – | – |
| Cc1nn(C)c(C(=O)NCc2cccc(C(F)(F)F)c2)c1Cl | 0 | 0 | 0 | – | – |
| Cc1nn(C)c(C(=O)NCc2ccc(C(F)(F)F)cc2)c1Cl | 80 | 100 | 100 | – | – |
| Cc1nn(C)c(C(=O)N(C)Cc2ccc(C(C)(C)C)cc2)c1Cl | 0 | 0 | 0 | – | – |
| Cc1nn(C)c(C(=O)OCc2ccc(C(C)(C)C)cc2)c1Br | 0 | 0 | 0 | – | – |
| Cc1nn(C)c(C(=O)SCc2ccc(C(C)(C)C)cc2)c1Cl | 0 | 0 | 30 | – | – |
